Here are results for one compound from paper PMC8145986, “In Vitro Enzymatic and Kinetic Studies, and In Silico Drug-Receptor Interactions, and Drug-Like Profiling of the 5-Styrylbenzamide Derivatives as Potential Cholinesterase and β-Secretase Inhibitors with Antioxidant Properties” (Antioxidants, 2021).

The target of assay [1] is T1, BChE (Homo sapiens, UniProt P06276).
T1 construct: purchased Cloud-Clone Corp. (via Biocom Africa (Pty) Ltd.)
Kind of assay: biochemical. Particulars: mean ± SD of three independent experiments. As to the method:
The melting point values of the test compounds were recorded on a Thermocouple digital melting point apparatus (Mettler Toledo LLC, Columbus, OH, USA). The infrared (IR) spectra were recorded using the thin-film method on a Bruker VERTEX 70 FT-IR Spectrometer (Bruker Optics, Billerica, MA, USA) equipped with an ATR (diamond attenuated total reflectance) accessory. Merck kieselgel 60 (0.063–0.200 mm) (Merck KGaA, Frankfurt, Germany) was used as a stationary phase for column chromatography. The ^1H-NMR and ^13C-NMR spectra of the prepared compounds were obtained as deuterated dimethyl sulfoxide ((CD3)2SO) solutions using Agilent 500 MHz NMR spectrometer (Agilent Technologies, Oxford, UK) operating at 500 MHz and 125 MHz for ^1H and ^13C, respectively. The chemical shifts are quoted relative to tetramethylsilane (TMS) used as an internal reference standard (δ = 0.00 ppm) or a residual protonated solvent. The high-resolution mass spectra were recorded at an ionization potential of 70 eV using Micromass Autospec-TOF (double focusing high resolution) instrument (Waters Corp., Milford, MA, USA). The synthesis and analytical data for 2-amino-5-iodobenzamide (1) have been reported in our previous study. Recombinant human AChE (BioLegend) and BChE (Cloud-Clone Corp.) were purchased via Biocom Africa (Pty) Ltd. (Centurion, Pretoria, South Africa).
AChE and BChE were used to determine cholinesterase activities spectrophotometrically using […] as substrates, respectively, following a modification of the Ellman’s method, as described in our previous study, and the reactions were performed in triplicate at 37 °C in a 96-well plate. […] A multi-channel pipette was used for the addition of reagents to the wells.
A total of 8.0 μL of the test compound and 2.0 μL of BChE (0.02 mg/mL) was added to each of the designated wells of the 96-well plate, and the mixtures were incubated at room temperature for 30 min. Tris buffer (70 μL) was added to each well containing the reaction mixture and incubation was continued for a further 10 min at this temperature, which was followed by the addition of 10 μL solution of 5,5′-dithiobis-(2-nitrobenzoic acid) (DTNB) (3 mM in Tris buffer, 50 mM, pH 7.7) and butyrylcholine iodide (5 mM in Tris buffer, 50 mM, pH 7.7) to each well to initiate the reaction. […] The IC50 and standard deviation values using the Graph Pad Prism.

The target of assay [2] is T2, β-secretase (Homo sapiens, UniProt P56817).
T2 construct: purchased Thermo Fisher Scientific Corporation; host or cells: baculovirus-expressed
Description: β-Secretase (BACE-1) inhibition assay. The class given is biochemical. Conditions: mean ± SD of three independent experiments. On the procedure: The β-secretase inhibitory activities of the test compounds were assayed in triplicates in 96-well plates using a recombinant baculovirus-expressed β-secretase and a specific substrate (Rh-[…]-Quencher), according to the manufacturer’s (Thermo Fisher Scientific Corporation, Johannesburg, Gauteng, South Africa) instructions, as described in our previous study. […] To each well, 2.0 μL human recombinant β-secretase (1.0 U/mL) was added to start the reaction and the reaction mixture was incubated for 60 min at room temperature. […] The IC50 and standard deviation values of both the test compounds and reference standard were calculated using the Graph Pad Prism.

Assay [3] can be described thus: DPPH radical scavenging assay. Particulars: read-out: IC50 (SD) DPPH. As to the method:
The antioxidant activities of the test compounds against ascorbic acid (Sigma Aldrich, Saint Louis, MO, USA) as a positive control were evaluated using a 2,2-diphenyl-1-picrylhydrazyl (DPPH) radical scavenging assay developed by Zhu et al., as described in our previous study. Duplicate solutions (20 μL) of the test compounds and ascorbic acid in DMSO (final concentrations: 5, 10, 25, 50, and 100 μM) were added into each designated well of a 96-well plate. A solution of DPPH (0.20 mM) (20 μL) in methanol was added to each well, and the 96-well plate was wrapped with aluminium foil and incubated in the dark for 45 min. Five absorbance readings were recorded at 512 nm using a Varioskan flash microplate spectrophotometer reader. The average values obtained from the absorbance readings were used to determine the IC50 and standard deviation values.
In general terms: DPPH is a stable violet radical that fades when it is reduced.

The target of assay [4] is T1, BChE. Description: Enzyme kinetic study against BChE (Lineweaver-Burk and Dixon plots). It counts as biochemical. As to the method: The AChE and BChE enzyme kinetic studies were performed in triplicate in a 96-well plate following a procedure described in our previous study. Varying concentrations of 2a or 3c (0, 2.5, 3.5, and 5 μM) and AChI or BChI (0.1, 0.5, 2.5, and 5 mM) were used for the kinetic assays. The absorbances were measured after every 1 s for 10 s at a wavelength of 412 nm using a microplate spectrophotometer reader. The Lineweaver–Burk plots (plot of the inverse of velocity (1/v) against the inverse of the substrate concentration (1/[S])) were constructed.

The target of assay [5] is T2, β-secretase. Description: Enzyme kinetic study on β-secretase (Lineweaver-Burk and Dixon plots). It counts as biochemical. As to the method: Compounds 2a and 3b were subjected to kinetic studies on β-secretase using substrate concentrations 150, 300, and 450 nM at increasing inhibitor concentrations (0, 4, 8, and 16 μM) following a method reported before. The fluorescence readings were recorded after every 1 s for 10 s at excitation and emission values of 545 nm and 590 nm, respectively. The Lineweaver–Burk plots (plots of the inverse of velocity against the inverse of the substrate concentration) were constructed to assess changes in enzymatic parameters. The Dixon plots were also prepared to determine the inhibitor constants, Ki.

For the next assay, the system named is Vero cells. Description: LPS-induced ROS production in Vero cells (H2DCF-DA). The class given is cell-based, monkey. Particulars: 10 μM compound, LPS 1 μg/mL, 24 h (Figure 9a). On the procedure:
(§1) Mitochondrial ROS levels in Vero and A549 cell lines was measured using the 2′,7′-dichlorofluorescin diacetate (H2DCF-DA) (Sigma-Aldrich, St. Louis, MO, USA, Merck, Darmstadt, Germany), fluorescent probe. Cells (1 × 10^5) were seeded in 96 well plates and incubated overnight at 37 °C in 5% CO2. A minimum non-toxic concentration (10 μM) of compounds (2a and 3b) was added separately as treatment and further incubated for an hour, after which LPS (1 μg/mL) was added to induce the production of ROS. After 24 h of incubation, the media was aspirated, cells were rinsed with PBS, and followed by the addition of H2DCF-DA (10 μM) for 30 min in the dark. The absorbance of the fluorescence was measured using a microplate reader (VarioSkan Flash, Thermo Fisher Scientific, Finland) at 485 and 535 nm values of excitation and emission, respectively. Data was processed and analysed using ANOVA, which was followed by Duncan’s multiple comparison test.

A further assay has as its system A549 cells. Kind of assay: LPS-induced ROS production in A549 cells (H2DCF-DA). The class given is cell-based, human. Particulars: 10 μM compound, LPS 1 μg/mL, 24 h (Figure 9b). On the procedure:
as §1

T1 sequence (P06276 29-602): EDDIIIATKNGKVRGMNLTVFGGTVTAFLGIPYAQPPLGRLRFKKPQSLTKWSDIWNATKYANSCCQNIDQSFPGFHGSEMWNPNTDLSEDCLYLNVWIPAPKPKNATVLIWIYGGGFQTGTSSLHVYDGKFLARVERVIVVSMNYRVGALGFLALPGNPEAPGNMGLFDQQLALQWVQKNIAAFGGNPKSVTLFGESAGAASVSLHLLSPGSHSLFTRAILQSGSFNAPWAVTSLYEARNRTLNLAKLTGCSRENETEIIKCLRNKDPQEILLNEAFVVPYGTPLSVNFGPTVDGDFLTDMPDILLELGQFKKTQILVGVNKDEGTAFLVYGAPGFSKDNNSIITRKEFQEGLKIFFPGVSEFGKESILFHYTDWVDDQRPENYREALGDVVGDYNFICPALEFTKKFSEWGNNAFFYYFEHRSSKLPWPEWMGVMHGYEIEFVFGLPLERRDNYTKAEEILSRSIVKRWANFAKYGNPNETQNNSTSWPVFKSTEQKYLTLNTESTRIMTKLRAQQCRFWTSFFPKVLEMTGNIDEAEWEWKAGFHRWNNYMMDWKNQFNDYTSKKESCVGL
T2 sequence (P56817 46-501): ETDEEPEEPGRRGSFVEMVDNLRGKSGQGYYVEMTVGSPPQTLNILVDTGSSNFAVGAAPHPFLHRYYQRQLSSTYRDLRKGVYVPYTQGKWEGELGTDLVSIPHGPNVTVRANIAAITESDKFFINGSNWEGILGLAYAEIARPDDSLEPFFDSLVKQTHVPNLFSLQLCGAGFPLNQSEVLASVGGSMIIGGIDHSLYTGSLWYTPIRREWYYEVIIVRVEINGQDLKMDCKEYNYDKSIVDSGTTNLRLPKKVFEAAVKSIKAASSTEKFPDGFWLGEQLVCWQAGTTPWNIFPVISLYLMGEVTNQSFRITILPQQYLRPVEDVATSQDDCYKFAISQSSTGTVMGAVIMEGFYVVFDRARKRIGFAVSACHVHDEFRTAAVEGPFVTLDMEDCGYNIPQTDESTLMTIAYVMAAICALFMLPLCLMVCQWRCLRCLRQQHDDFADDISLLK

For the compound `NC(=O)c1cc(/C=C/c2ccccc2)ccc1N` [Compound 2a, (E)-2-Amino-5-styrylbenzamide], the IC50 (in general, the concentration needed to halve the response being measured) at BChE [1] was 4.7 ± 0.32 µM; on β-secretase [2], 15.8 ± 0.26 µM; in assay [3], 5.8 ± 0.32 µM. Besides, on BChE [4], the “mode of inhibition BChE” value is given as “mixed mode”. Moreover, the Ki (as a rule, a measure of affinity in units of concentration, obtained from inhibition or displacement) stood at 2 µM on BChE [4] (read-out: Ki (Dixon plot) BChE) and 3.44 ± 0.3 µM on β-secretase [5] (read-out: Ki (Dixon plot) β-secretase). In addition, the “mode of inhibition β-secretase” value on β-secretase [5] was “mixed mode”. In addition, the “suppression of LPS-induced ROS” value in the assay on Vero cells is given as “about 60%”. Also, the ROS reduction entry in the assay with A549 cells is “about 65%”.
